Paper PMC11111404, “Discovery of potent small-molecule inhibitors of lipoprotein(a) formation” (Nature, 2024)
Several values for one entry are separate records, joined by “and”; a condition that tells them apart may be missing. Identical values can stand only once. Like-named read-outs stand apart in the source and are kept apart here.

What was measured:
[1] = tested on: Lp(a); experiment: Lp(a) levels in LPA × ApoB100 transgenic mice; type: in vivo, mouse; set-up: Lp(a) / Diff_vs_Vehicle: unit not given here; conditions: for % max Lp(a) decrease (dose, mg/kg): Lp(a) transgenic mice section; for % Lp(a) max decrease / ED50: BID, 5 days dosing; for Percent_change_from_Vehicle / Diff_vs_Vehicle: Lp(a); for Percent_change_from_Vehicle / Diff_vs_Vehicle / Lp(a): transgenic mice; for Percent_change_from_Vehicle / Lp(a): individual animal; for Diff_vs_Vehicle: group statistics; for ED50: Mus musculus, 120 h
Method: (§1) The LPA gene (GenBank accession code NM_005577) encoding the human apo(a) protein with a signal peptide, one KIV type 1, six KIV type 2 repeats, one each of KIV types 3–10, one KV and one protease domain was subcloned into a transgenic vector containing a mouse albumin promoter cassette and a human growth hormone polyadenylation signal. The transgenic mouse line was generated by pronucleus injection of the LPA transgenic vector. Eight individual transgenic founder mice were assessed for germline transmission of LPA by genotyping and assessment of the levels of apo(a) in the plasma. Positive founder mice were crossed with ApoB100 transgenic mice (Taconic model 1004), and the resulting mouse line nomenclature (B6.SJL-Tg(APOB)1102Sgy Tg(Alb-LPA)32Arte) was selected on the basis of the confirmation of germline transmission, the identification of LPA and huApoB100 transgenes and the levels of Lp(a) in the plasma. Mice hemizygous for both transgenes were used for pharmacology studies. The studies were conducted in female Lp(a) double transgenic mice (age around 7–17 months). Mice were housed in cages with a standard light cycle (12-h light, 12-h dark), at room temperature (22 ± 4 °C), with a relative humidity of 30–70%. Mice were identified by numbers on the cage cards. After arrival, mice were fed on a normal diet (Harlan Teklad diet 2014). Mice were randomized to treatment groups (n = 5 per group, unless otherwise noted) by body weight and baseline plasma Lp(a) concentration using a block randomized allocation tool (BRAT) for the study. In an example Lp(a) transgenic mouse study in which 66 mice were prescreened for baseline Lp(a) levels, the average Lp(a) level was 45 ± 1.8 µg ml^−1 (range 20–78 µg ml^−1). Mice were dosed with various compounds in vehicle (10 ml kg^−1, 1% hydroxyethyl cellulose (HEC), 0.25% Tween-80, Antifoam) or with vehicle alone as a control orally BID for five days. Blood samples were collected by tail bleeds at designated times, and Lp(a) levels were determined by ELISA by an investigator who was blinded to group allocation. In brief, lipoprotein particles were captured by a goat anti-Lp(a)-antibody-coated plate (Abcam ab31675, diluted 1:12,500 in HEPES-buffered saline), the plates were washed and samples were detected using an HRP-conjugated goat anti-apoB antibody (Abcam ab27622, diluted 1:3,000). Colorimetric peroxidase substrate 3,3’,5,5’-TMB was added, and the reaction was stopped using 1 N sulfuric acid. Absorbance at 450 nm was read on a Molecular Devices SpectraMax plate reader. Blood samples were collected at four hours after dosing on day 5 of dosing to confirm exposure. Full pharmacokinetic (PK) profiles were not evaluated. Concentrations of compounds were evaluated from dried blood spots through a non-Good Laboratory Practice (GLP) liquid chromatography with tandem mass spectrometry (LC–MS/MS) assay. Data were analysed in GraphPad Prism v.9.5.1

[2] = molecular target: T1, plasmin activity (Rattus norvegicus, UniProt Q01177); experiment: Rat plasma plasmin (plasminogen) activity ex vivo after oral dosing; type: in vivo; conditions: for plasma plasmin activity measured ex vivo: rats treated orally at pharmacological doses; for PLG activity (Vmax), Plasminogen (mean of replicates) / PLG activity (Vmax), Replicate 1 / PLG activity (Vmax), Replicate 2 / PLG activity % change from Vehicle: rat, individual animals; for PLG activity % change from Vehicle: Vehicle mean 267.0
T1 construct: Plasma samples were collected via the abdominal aorta; from tissue; host or cells: Citrated plasma of orally dosed male Sprague Dawley rats
T1 sequence (Q01177 20-812 limits assumed): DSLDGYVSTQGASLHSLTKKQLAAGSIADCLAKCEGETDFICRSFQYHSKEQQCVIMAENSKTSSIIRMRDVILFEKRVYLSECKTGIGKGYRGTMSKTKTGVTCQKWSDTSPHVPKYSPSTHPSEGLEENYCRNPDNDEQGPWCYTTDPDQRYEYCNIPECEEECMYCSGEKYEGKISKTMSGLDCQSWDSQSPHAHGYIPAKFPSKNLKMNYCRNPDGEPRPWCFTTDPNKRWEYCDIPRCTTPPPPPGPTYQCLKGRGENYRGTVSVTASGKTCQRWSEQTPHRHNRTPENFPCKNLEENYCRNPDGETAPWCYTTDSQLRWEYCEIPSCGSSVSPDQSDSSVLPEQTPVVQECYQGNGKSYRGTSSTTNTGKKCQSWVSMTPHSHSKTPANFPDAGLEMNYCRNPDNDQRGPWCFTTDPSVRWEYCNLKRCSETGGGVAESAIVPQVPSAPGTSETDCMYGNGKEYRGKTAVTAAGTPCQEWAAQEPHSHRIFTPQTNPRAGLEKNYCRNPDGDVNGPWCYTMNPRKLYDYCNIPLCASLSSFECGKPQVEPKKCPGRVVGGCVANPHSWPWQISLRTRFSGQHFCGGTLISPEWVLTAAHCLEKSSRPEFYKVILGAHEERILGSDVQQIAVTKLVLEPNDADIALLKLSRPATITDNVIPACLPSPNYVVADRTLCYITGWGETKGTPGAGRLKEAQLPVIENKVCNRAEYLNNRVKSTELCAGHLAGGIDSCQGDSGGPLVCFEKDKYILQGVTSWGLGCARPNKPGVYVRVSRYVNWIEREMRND
Method: Male Sprague Dawley rats (Charles River, average body weight 310 g, aged eight to nine weeks old) were housed in cages with a standard light cycle (12-h light, 12-h dark), at room temperature (22 ± 4 °C), with a relative humidity of 30–70%. Rats were identified by numbers on the cage cards. After arrival, rats were fed on a normal diet (Harlan Teklad diet 2014) and randomized to treatment groups (n = 5 per group) by baseline plasma plasminogen concentration and activity using a BRAT. LSN3441732 and LY3473329 were administered QD orally at three dose levels (3.7, 12.3 and 37 mg kg^−1; 3.2, 10.5 and 31.6 mg kg^−1 per dose, respectively) or vehicle (10 ml kg^−1, 1% HEC, 0.25% Tween-80, Antifoam) for four days. Terminal blood was drawn under general anaesthesia 24 h after the day-4 oral dose. Plasma samples were collected via the abdominal aorta into a premeasured anticoagulant BD Vacutainer used for blood collection (2.7 ml, buffered sodium citrate). The liver was flash frozen in liquid nitrogen. To measure plasminogen activity, 100 µl plasma per well was added to a 96-well plate (Corning) and the following were added to the indicated concentrations: 7.5 mM CaCl2 and 117 mM NaCl. Wells were mixed and warmed to 37 °C. Urokinase (Millipore) was added at 125 U per well and the plate was incubated at 37 °C for 4 min. The plasminogen substrate Chromogenix S-2251 (DiaPharma) was added to a concentration of 3.3 mM. The mixture was added and the plate was sealed and placed in a prewarmed plate reader, shaken, and the absorbance read every 30 s for 2 h. The maximum slope for each curve was determined and the percentage inhibition was calculated relative to untreated controls. Plasminogen protein was measured using ELISA kits for rat (Abcam ab157740) according to the manufacturer’s instructions. Plasminogen activity (percentage) and mass (µg ml^−1) in rat were analysed by ANOVA in JMP 16.1.0. The percentage reduction of plasminogen activity and mass for each treated group was compared with vehicle by Dunnett’s method.

[3] = Drug concentration in mouse blood after oral dosing; type: in vivo; conditions: female, whole blood (dried blood spots), day 5, read-out: Drug concentration, 4-h time point
Method: as §1

[4] = Lp(a) transgenic mice, oral BID, five days
[5] = 3mpk oral BID five days, 3 mg/kg
[6] = 10mpk oral BID five days, 10 mg/kg
[7] = 30mpk oral BID five days, 30 mg/kg
[8] = 100mpk oral BID five days, 100 mg/kg
[9] = 1mpk oral BID five days, 1 mg/kg

| plasma plasmin activity measured ex vivo [2] | concentration at 4 h ([3]; oral 3 mg/kg) [µM] | concentration at 4 h ([3]; oral 10 mg/kg) [µM] | concentration at 4 h ([3]; oral 30 mg/kg) [µM] | Structure (SMILES) | % Lp(a) max decrease ([1]; Lp(a) transgenic mice) [%] | ED50 for Lp(a) reduction [1, 4] [mg/kg] | Percent_change_from_Vehicle [1, 5] | Diff_vs_Vehicle ([1]; 3mpk) | Percent_change_from_Vehicle [1, 6] | Diff_vs_Vehicle ([1]; 10mpk) | Percent_change_from_Vehicle [1, 7] | Diff_vs_Vehicle ([1]; 30mpk) | ED50 ([1]; Lp(a) transgenic mice) [mg/kg] | Lp(a) [1, 5] | Lp(a) [1, 6] | Lp(a) [1, 7] | also measured |
| --- | --- | --- | --- | --- | --- | --- | --- | --- | --- | --- | --- | --- | --- | --- | --- | --- | --- |
| no inhibitory action | 13.6 | 21.6 | 28 | Cl.O=C(O)[C@@H](Cc1ccccc1)[C@H]1CCNC1 [LSN3353871] | 78 | 14 | -29.9395% and -21.6818% and -23.4274% and -25.3773% and -20.1775% | -3.8966 | -56.5511% and -68.7767% and -51.9146% and -54.3536% | -9.353 | -73.0355% and -73.0232% and -55.5978% and -55.3749% and -63.9731% | -10.3714 | 14 | 11.318 and 12.652 and 12.37 and 12.055 and 12.895 | 7.019 and 5.044 and 7.768 and 7.374 | 4.356 and 4.358 and 7.173 and 7.209 and 5.82 | % max Lp(a) decrease (dose, mg/kg) ([1]; dose 20 mg/kg): 40 (20) %; maximum decrease in Lp(a) levels [1, 4]: up to 78%; Percent_change_from_Vehicle [1, 8]: -69.9343% and -77.4368% and -71.3085% and -83.0203% and -88.6967%; Diff_vs_Vehicle ([1]; 100mpk): -12.6134; Lp(a) [1, 8]: 4.857 and 3.645 and 4.635 and 2.743 and 1.826; concentration at 4 h ([3]; oral 100 mg/kg): 38 µM |
| decreased plasma plasmin activity | 0.432 ± 0.203 | 0.465 ± 0.167 | 0.625 ± 0.184 | Cl.Cl.O=C(Nc1cccc(C[C@H](C(=O)O)[C@H]2CCNC2)c1)Nc1cccc(C[C@H](C(=O)O)[C@H]2CCNC2)c1 [LSN3441732] | 79 | 4 | -66.5236% and -51.6627% and -46.9156% and -38.737% and -24.3395% | -17.8805 | -76.5617% and -56.1229% and -72.4537% and -56.7885% and -51.1958% | -24.5369 | -63.8115% and -85.6659% and -79.4795% and -86.8495% and -81.3358% | -31.1209 | 4 | 13.1164 and 18.9391 and 20.799 and 24.0035 and 29.6445 | 9.183 and 17.1915 and 10.7929 and 16.9307 and 19.122 | 14.179 and 5.616 and 8.04 and 5.1525 and 7.3128 | % max Lp(a) decrease (dose, mg/kg) ([1]; dose 30 mg/kg): 79 (30) %; mean maximal inhibition of Lp(a) ([1]; Lp(a) transgenic mice, 30 mg kg^−1 oral BID, five days): 79%; Percent_change_from_Vehicle [1, 9]: -26.3802% and -29.1802% and -35.4498% and -52.0742% and 20.793%; Diff_vs_Vehicle ([1]; 1mpk): -9.583; Lp(a) [1, 9]: 28.845 and 27.7479 and 25.2914 and 18.7778 and 47.3279; PLG activity (Vmax), Plasminogen (mean of replicates) ([2]; dose 3.7 mpk, 3.7 mg/kg): 240.6 and 263.3 and 236.5 and 207.9 and 235.8; PLG activity (Vmax), Replicate 1 ([2]; dose 3.7 mpk, 3.7 mg/kg): 239.342 and 259.606 and 234.747 and 204.985 and 233.598; PLG activity (Vmax), Replicate 2 ([2]; dose 3.7 mpk, 3.7 mg/kg): 241.939 and 266.922 and 238.196 and 210.884 and 238.070; PLG activity % change from Vehicle ([2]; dose 3.7 mpk, 3.7 mg/kg): -9.88% and -1.40% and -11.44% and -22.12% and -11.68%; PLG activity (Vmax), Plasminogen (mean of replicates) ([2]; dose 12.3 mpk, 12.3 mg/kg): 282.2 and 249.5 and 239.5 and 205.0 and 186.8; PLG activity (Vmax), Replicate 1 ([2]; dose 12.3 mpk, 12.3 mg/kg): 284.452 and 249.068 and 238.009 and 201.341 and 183.623; PLG activity (Vmax), Replicate 2 ([2]; dose 12.3 mpk, 12.3 mg/kg): 279.877 and 249.884 and 240.921 and 208.639 and 189.912; PLG activity % change from Vehicle ([2]; dose 12.3 mpk, 12.3 mg/kg): 5.68% and -6.57% and -10.32% and -23.23% and -30.05%; PLG activity (Vmax), Plasminogen (mean of replicates) ([2]; dose 37 mpk, 37 mg/kg): 195.8 and 173.1 and 184.9 and 150.3 and 200.6; PLG activity (Vmax), Replicate 1 ([2]; dose 37 mpk, 37 mg/kg): 217.532 and 172.649 and 184.379 and 149.241 and 196.980; PLG activity (Vmax), Replicate 2 ([2]; dose 37 mpk, 37 mg/kg): 174.037 and 173.594 and 185.398 and 151.449 and 204.259; PLG activity % change from Vehicle ([2]; dose 37 mpk, 37 mg/kg): -26.67% and -35.16% and -30.76% and -43.69% and -24.86%; concentration at 4 h ([3]; oral 1 mg/kg): 0.147 ± 0.126 µM |
